Test: xn = mol fraction of the nth substance listed

CC[n+]1ccn(C)c1.F[P-](F)(F)(F)(F)F + CC(C)[C@H](N)C(=O)O + O
100 kPa
Settings	electrical conductivity, 298.15 K [S/m]	electrical conductivity, 303.15 K [S/m]	electrical conductivity, 308.15 K [S/m]	viscosity, 298.15 K [mPa·s]	viscosity, 303.15 K [mPa·s]	viscosity, 308.15 K [mPa·s]
x2 = 0.0001802, x1 = 1.802e-05	0.0115	0.0132	0.0158	0.924	0.855	0.783
x2 = 0.0001803, x1 = 5.405e-05	0.0309	0.0338	0.0369	0.939	0.861	0.788
x2 = 0.0001804, x1 = 9.008e-05	0.0452	0.0507	0.0552	0.954	0.865	0.792
x2 = 0.0004522, x1 = 1.801e-05	0.0121	0.0136	0.0156	0.93	0.862	0.79
x2 = 0.0004524, x1 = 5.403e-05	0.0301	0.0329	0.0366	0.946	0.868	0.795
x2 = 0.0004526, x1 = 9.005e-05	0.046	0.0507	0.0551	0.963	0.876	0.801
x2 = 0.0007258, x1 = 1.801e-05	0.0124	0.0141	0.016	0.936	0.869	0.797
x2 = 0.0007262, x1 = 5.402e-05	0.0308	0.0336	0.0361	0.953	0.875	0.802
x2 = 0.0007265, x1 = 9.003e-05	0.0494	0.0548	0.0593	0.97	0.884	0.808
x2 = 0.0009976, x1 = 1.8e-05	0.0136	0.015	0.0177	0.942	0.876	0.803
x2 = 0.000998, x1 = 5.4e-05	0.0304	0.0333	0.0354	0.96	0.883	0.811
x2 = 0.0009985, x1 = 9e-05	0.0457	0.051	0.0553	0.979	0.893	0.818
x2 = 0.001273, x1 = 1.8e-05	0.0147	0.0167	0.0199	0.948	0.882	0.811
x2 = 0.001273, x1 = 5.399e-05	0.0323	0.0341	0.0377	0.969	0.89	0.819
x2 = 0.001274, x1 = 8.998e-05	0.0487	0.0538	0.0594	0.988	0.899	0.826
x2 = 0.001546, x1 = 1.799e-05	0.0161	0.0182	0.0218	0.954	0.888	0.818
x2 = 0.001547, x1 = 5.397e-05	0.0327	0.0343	0.0383	0.976	0.897	0.827
x2 = 0.001547, x1 = 8.995e-05	0.0455	0.0512	0.0549	0.996	0.908	0.833

CCCC[n+]1ccn(C)c1C.F[B-](F)(F)F + CCCCn1cc[n+](C)c1C.O=S(=O)([N-]S(=O)(=O)C(F)(F)F)C(F)(F)F
100 kPa
Settings	electrical conductivity [S/m]
313.15 K, x2 = 0.5	0.313
318.15 K, x2 = 0.3	0.332
318.15 K, x2 = 0.5	0.388
318.15 K, x2 = 0.8	0.493
323.15 K, x2 = 0	0.202
323.15 K, x2 = 0.2	0.398
323.15 K, x2 = 0.3	0.415
323.15 K, x2 = 0.4	0.445
328.15 K, x2 = 0	0.26
333.15 K, x2 = 0.6	0.687
338.15 K, x2 = 0	0.447
338.15 K, x2 = 0.3	0.734
338.15 K, x2 = 0.4	0.774
338.15 K, x2 = 0.6	0.806
348.15 K, x2 = 0.4	1.04
348.15 K, x2 = 0.8	1.23
348.15 K, x2 = 0.9	1.4
353.15 K, x2 = 0.8	1.32
358.15 K, x2 = 0.1	1.33
358.15 K, x2 = 0.5	1.39
358.15 K, x2 = 0.7	1.42
358.15 K, x2 = 0.8	1.49
363.15 K, x2 = 0.5	1.56

COCCOC + CCCC[n+]1ccn(C)c1.O=S(=O)([N-]S(=O)(=O)C(F)(F)F)C(F)(F)F
Settings	electrical conductivity [S/m]
294.5 K, 100 kPa, x2 = 0.02332	0.62

CCCC[n+]1ccn(C)c1.O=[N+]([O-])[O-] + O
Settings	viscosity [mPa·s]
295.15 K, 101 kPa, x2 = 0.1659	73
308 K, 100 kPa, x1 = 0.4463	14.67
308 K, 100 kPa, x1 = 0.6298	29.49
313 K, 100 kPa, x1 = 0.05634	1.464
313 K, 100 kPa, x1 = 0.08219	2.196
313 K, 100 kPa, x1 = 0.2637	6.31
